Literature values, collected in US6022558A, “Transdermal preparations of oxicams” (priority 1997, dated 2000).

Assays:
[1] = rats and rabbits
[2] = oral administration
[3] = single or multiple doses in patients

CN1C(C(=O)Nc2ccccn2)=C(O)c2ccccc2S1(=O)=O [piroxicam, 4-hydroxyl-2-methyl-N-(2-pyridyl)-2H-1,2-benzo-thiazine-3-carboxamide-1,1-dioxide]
Oral absorption [1]: almost completely absorbed | Second plasma maximum [2]: shows a second maximum plasma concentration due to hepatic and intestinal recycling | Cmax and AUC dependence on dose [3]: proportional to the dose administered | Pharmacokinetic linearity [3]: possessed a linear pharmacokinetic property
